According to ChEMBL document CHEMBL3751844, “Novel juglone and plumbagin 5-O derivatives and their in vitro growth inhibitory activity against apoptosis-resistant cancer cells” (Bioorg Med Chem Lett, 2016):
The source made the active and inactive calls. No cut-off for these calls is given here.

Tests used:
MCF7 = assay: Growth inhibition of human MCF7 cells by MTT assay; assay type: functional, cell-based
[1] = Growth inhibition of human U373 cells by MTT assay; assay type: functional, cell-based, U-373MG ATCC; details: U373 MG
[2] = Growth inhibition of mouse B16F10 cells by MTT assay; assay type: functional, cell-based; details: B16-F10
A549 = assay: Growth inhibition of human A549 cells by MTT assay; assay type: functional, cell-based
[3] = Chemical stability of the compound in MEM and RPMI assessed as compound recovery after 72 hrs in presence of foetal calf serum; assay type: physicochemical; details: cattle, MEM and RPMI cell culture media with foetal calf serum; read-out: Drug recovery
[4] = Growth inhibition of human Hs683 cells by MTT assay; assay type: functional, cell-based; details: Hs 683
SK-MEL-28 = assay: Growth inhibition of human SK-MEL-28 cells by MTT assay; assay type: functional, cell-based
U-373MG ATCC [5] = assay: Cytotoxicity against human U373 cells at 17 uM after 72 hrs by video microscopic analysis; assay type: functional, cell-based
U-373MG ATCC [6] = assay: Cytotoxicity against human U373 cells at 5 uM after 72 hrs by video microscopic analysis; assay type: functional, cell-based
U-373MG ATCC [7] = assay: Cytotoxicity against human U373 cells at 8 uM after 72 hrs by video microscopic analysis; assay type: functional, cell-based

Row | Structure (SMILES) | IC50 (MCF7) [µM] | IC50 [1] [µM] | IC50 [2] [µM] | IC50 (A549) [µM] | remaining at 72 h [3] [%] | IC50 [4] [µM] | IC50 (SK-MEL-28) [µM] | Activity (U-373MG ATCC [5]) | Activity (U-373MG ATCC [6]) | Activity (U-373MG ATCC [7])
1 | CCCCCCCCCCCC(=O)Oc1cccc2c1C(=O)C=C(C)C2=O | 29 | 16 | 3 | 22 | > 95 | 17 | 77 |  |  | 
2 | CC(=O)Oc1cccc2c1C(=O)C=C(C)C2=O | 4 | 5 | 0.4 | 5 | > 95 | 5 | 3 |  |  | 
3 | CCCCCCCCCCCCCC(=O)Oc1cccc2c1C(=O)C=C(C)C2=O | 22 | 16 | 3 | 12 | > 95 | 9 | 18 |  |  | 
4 | CCCCCCCCCCCCCCCC(=O)Oc1cccc2c1C(=O)C=CC2=O | 86 | > 100 | 53 | > 100 | > 95 | > 100 | > 100 |  |  | 
5 | CCCCCCCC/C=C\CCCCCCCC(=O)Oc1cccc2c1C(=O)C=C(C)C2=O | 57 | 62 | 22 | 36 | > 95 | 35 | 31 |  |  | 
6 | O=C1C=CC(=O)c2c(O)cccc21 [JUGLONE] | 13 | 17 | 6 | 7 |  | 7 | 7 | Active |  | 
7 | CCCCCCCC/C=C\CCCCCCCC(=O)Oc1cccc2c1C(=O)C=CC2=O | 61 | 91 | 61 | 77 | > 95 | 77 | 67 |  |  | 
8 | CC(C)=CCOc1cccc2c1C(=O)C=CC2=O | 16 | 15 | 7 | 6 |  | 7 | 5 |  |  | 
9 | CCCCCCCCCCCCCC(=O)Oc1cccc2c1C(=O)C=CC2=O | 30 | 30 | 27 | 36 | > 95 | 36 | 33 |  |  | 
10 | COc1cccc2c1C(=O)C=C(C)C2=O | 5 | 5 | 2 | 4 |  | 3 | 5 |  | Active | 
11 | CCCCCCCCCCCCCCCCCC(=O)Oc1cccc2c1C(=O)C=C(C)C2=O | > 100 | > 100 | 46 | > 100 | > 95 | > 100 | 91 |  |  | 
12 | C=CCOc1cccc2c1C(=O)C=CC2=O | 21 | 32 | 4 | 26 |  | 19 | 24 |  |  | 
13 | C=CCOc1cccc2c1C(=O)C=C(C)C2=O | 3 | 3 | 1 | 3 |  | 3 | 3 |  |  | 
14 | CCCCCCCCCCCCCCCC(=O)Oc1cccc2c1C(=O)C=C(C)C2=O | 57 | 48 | 22 | 30 | > 95 | 33 | 73 |  |  | 
15 | COc1cccc2c1C(=O)C=CC2=O | 39 | 9 | 10 | 9 |  | 6 | 30 |  |  | 
16 | CCCCCCCCCCCCCCCCCC(=O)Oc1cccc2c1C(=O)C=CC2=O | 30 | 65 | 19 | 67 | > 95 | 67 | 18 |  |  | 
17 | CCCCCCCCCCCC(=O)Oc1cccc2c1C(=O)C=CC2=O | 24 | 18 | 8 | 29 | > 95 | 29 | 15 |  |  | 
18 | CCOc1cccc2c1C(=O)C=CC2=O | 24 | 29 | 5 | 19 |  | 23 | 9 |  |  | 
19 | CC(C)=CCOc1cccc2c1C(=O)C=C(C)C2=O | 3 | 7 | 1 | 4 |  | 3 | 7 |  |  | 
20 | CC(C)=CCC/C(C)=C/COc1cccc2c1C(=O)C=C(C)C2=O | 40 | 59 | 30 | 23 |  | 22 | 31 |  |  | 
21 | CCOc1cccc2c1C(=O)C=C(C)C2=O | 6 | 24 | 3 | 3 |  | 2 | 3 |  |  | 
22 | CC1=CC(=O)c2c(O)cccc2C1=O [PLUMBAGIN] | 3 | 5 | 1 | 3 |  | 4 | 5 |  | Active | 
23 | CC(C)=CCC/C(C)=C/COc1cccc2c1C(=O)C=CC2=O | > 100 | > 100 | > 100 | 67 |  | 67 | > 100 |  |  | 
24 | CC(=O)Oc1cccc2c1C(=O)C=CC2=O | 8 | 8 | 7 | 23 | > 95 | 23 | 23 |  |  | Active
